This is an account of results in article PMC7956155, “Design and Evaluation of Peptide Dual-Agonists of GLP-1 and NPY2 Receptors for Glucoregulation and Weight Loss with Mitigated Nausea and Emesis” (Journal of Medicinal Chemistry, 2021).

Square brackets hold non-standard residues; d marks the D form. Ends that are not written are not given here.

The target in data set [1] is T1, human GLP-1R (Homo sapiens, UniProt P43220). Kind of data set: Taglite fluorescent competitive binding assay at GLP-1R against GLP-1red. The conditions noted are these: CHO-K1 cells, tracer GLP-1red 4 nM, duplicate independent runs.
T1 sequence (P43220 24-463): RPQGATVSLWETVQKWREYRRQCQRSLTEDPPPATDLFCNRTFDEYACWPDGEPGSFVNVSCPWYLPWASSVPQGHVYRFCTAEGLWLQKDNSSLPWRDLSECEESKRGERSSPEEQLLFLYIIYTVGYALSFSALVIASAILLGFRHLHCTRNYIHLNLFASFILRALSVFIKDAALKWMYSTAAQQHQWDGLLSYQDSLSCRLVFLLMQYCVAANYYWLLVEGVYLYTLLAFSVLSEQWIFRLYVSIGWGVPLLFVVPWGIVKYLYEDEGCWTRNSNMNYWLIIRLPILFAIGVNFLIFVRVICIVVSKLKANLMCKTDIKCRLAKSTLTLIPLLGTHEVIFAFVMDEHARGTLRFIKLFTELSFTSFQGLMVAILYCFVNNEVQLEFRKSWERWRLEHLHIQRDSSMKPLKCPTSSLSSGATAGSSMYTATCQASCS
The target in another data set is T2, human Y2-R (Homo sapiens, UniProt P49146).
T2 sequence (P49146 1-381): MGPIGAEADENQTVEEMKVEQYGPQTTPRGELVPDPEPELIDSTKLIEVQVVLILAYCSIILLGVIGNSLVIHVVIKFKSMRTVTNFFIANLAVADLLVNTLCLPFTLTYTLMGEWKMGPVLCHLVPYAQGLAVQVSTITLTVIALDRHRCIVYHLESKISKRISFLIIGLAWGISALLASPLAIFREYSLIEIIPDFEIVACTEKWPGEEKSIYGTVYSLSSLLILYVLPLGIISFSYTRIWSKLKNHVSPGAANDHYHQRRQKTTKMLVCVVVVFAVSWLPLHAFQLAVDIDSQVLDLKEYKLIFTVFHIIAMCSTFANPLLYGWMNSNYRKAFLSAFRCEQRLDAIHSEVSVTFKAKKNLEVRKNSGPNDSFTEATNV
Briefly: cAMP FRET reporter (H188) assay at Y2-R: counteraction of adenosine-stimulated cAMP in HEK293 cells. It counts as cell-based. The conditions noted are these: HEK cells with H188 biosensor, recombinant human Y2-R and endogenous A2b receptors; 2 μM adenosine; 95% CI in brackets, at least triplicate; read-out: Y2-R agonist action (IC50), decrease of adenosine-raised cAMP.

The nature of data set [2]: Pooled rat liver microsomal stability assay. Format: in vitro ADME. The conditions noted are these: pooled male Sprague–Dawley rat liver microsomes 1 mg/mL, 30 μM peptide, 1 mM NADPH, pH 7.4, 37 °C, over 120 min, HPLC UV 206 nm, n = 3; standard error in brackets. A general note: Liver microsomes are vesicles of endoplasmic reticulum, rich in cytochrome P450 enzymes.
Description: Pooled liver microsomes from a male Sprague–Dawley rat were purchased from Sigma-Aldrich. Microsomal incubations were performed in triplicate as independent data sets in 3 mM MgCl2, 25 mM KH2PO4 buffer at pH 7.4. Assays were performed at 500 μL total volume with 30 μM peptide, 1 mM NADPH, and 1 mg/mL pooled liver microsomes. Kanamycin at 200 μM was used as an internal standard. Pooled rat liver microsome assay showing data collected by HPLC. […] Assays were conducted at 37 °C with gentle rocking. […] Data were fit utilizing eqs 3–6.
In the next data set the target is rat GlucR (Rattus norvegicus, UniProt P30082). Kind of data set: cAMP FRET reporter (H188) agonism assay at GlucR in HEK293 cells. It counts as cell-based. The conditions noted are these: HEK293 cells stably expressing GlucR, H188 FRET biosensor; duplicate independent experiments; read-out: GlucR agonist action (EC50), increase of cytosolic cAMP. Here is the method:
Plasmid encoding human Y2-R (I.D. NPYR20TN00) in pcDNA3.1 and human Y1-R (NPYR10TN00) were obtained from the cDNA Resource Center (Bloomsburg, PA). HEK293 cells stably expressing the rat GlucR were obtained from C. […] Adenovirus for transduction of HEK293 cells was generated by a commercial vendor (Vira-Quest, North Liberty, IA) using the shuttle vector pVQAd CMV K-NpA and the H188 plasmid provided by Prof. Kees Jalink.[74]
These assays were conducted as fully described by us previously.[70],[71] Briefly, HEK293 cells transiently or stably expressing recombinant GPCRs were plated at 80% confluency on 96-well clear-bottom assay plates (Costar 3904, Corning, NY). […] Real-time kinetic assays of FRET were performed using a FlexStation 3 microplate reader equipped with excitation and emission light monochromators (Molecular Devices, Sunnyvale, CA). Excitation light was delivered at 435/9 nm (455 nm cutoff), and emitted light was detected at 485 ± 15 nm (cyan fluorescent protein) or 535 ± 15 nm (yellow fluorescent protein).[68],[75] […] The 485/535 emission ratio was calculated for each well, and the mean ± SD values for 12 wells were averaged. […] Prism 8.1 was also used for nonlinear regression analysis to quantify dose–response relationships.

Another data set has as its target T3, human Y1-R (Homo sapiens, UniProt P25929).
T3 sequence (P25929 1-384): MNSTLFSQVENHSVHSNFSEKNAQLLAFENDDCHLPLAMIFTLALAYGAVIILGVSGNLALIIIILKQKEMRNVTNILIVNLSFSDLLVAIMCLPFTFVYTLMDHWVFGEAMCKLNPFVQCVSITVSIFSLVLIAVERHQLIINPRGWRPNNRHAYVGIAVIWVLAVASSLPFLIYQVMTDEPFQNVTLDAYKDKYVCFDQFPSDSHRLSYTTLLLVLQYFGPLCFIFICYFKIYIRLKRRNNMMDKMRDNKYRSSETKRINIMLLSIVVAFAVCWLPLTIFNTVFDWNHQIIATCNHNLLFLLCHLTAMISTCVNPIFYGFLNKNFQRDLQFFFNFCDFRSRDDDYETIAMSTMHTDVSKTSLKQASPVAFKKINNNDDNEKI
Kind of data set: cAMP FRET reporter (H188) assay at Y1-R: counteraction of adenosine-stimulated cAMP in HEK293 cells. The conditions noted are these: HEK cells with H188 biosensor, recombinant human Y1-R and endogenous A2b receptors; 2 μM adenosine; 95% CI in brackets, at least triplicate; read-out: Y1-R agonist action (IC50), decrease of adenosine-raised cAMP. It counts as cell-based.

Data set [3] has as its target T1, human GLP-1R. Briefly: cAMP FRET reporter (H188) agonism assay at human GLP-1R in HEK293 cells. It counts as cell-based.
Description: HEK293 cells stably expressing the human GLP-1R and virally transduced with H188 for FRET assays were obtained from Novo Nordisk A/S (Bagsvaerd, Denmark).[67] […] Post-transfection, cells were incubated for 48 h in fresh culture media. For real-time kinetic assays of FRET, cells were harvested and resuspended in 21 mL of SES buffer and plated at 196 μL per well. […] FRET assays and data analysis were performed using a FlexStation 3 microplate reader as described.
Cells were then transduced for 16 h with H188 virus at a density of 60 000 cells/well under conditions in which the multiplicity of infection was equivalent to 25 viral particles per cell. The culture media was removed and replaced by 200 μL/well of a standard extracellular saline (SES) solution supplemented with 11 mM glucose and 0.1% BSA. […] Real-time kinetic assays of FRET were performed using a FlexStation 3 microplate reader equipped with excitation and emission light monochromators (Molecular Devices, Sunnyvale, CA). […] The emission intensities were the averages of 15 excitation flashes for each time point per well. […] Prism 8.1 was also used for nonlinear regression analysis to quantify dose–response relationships.
The target in the next data set is T4, rat GLP-1R (Rattus norvegicus, UniProt P32301).
T4 sequence (P32301 22-463): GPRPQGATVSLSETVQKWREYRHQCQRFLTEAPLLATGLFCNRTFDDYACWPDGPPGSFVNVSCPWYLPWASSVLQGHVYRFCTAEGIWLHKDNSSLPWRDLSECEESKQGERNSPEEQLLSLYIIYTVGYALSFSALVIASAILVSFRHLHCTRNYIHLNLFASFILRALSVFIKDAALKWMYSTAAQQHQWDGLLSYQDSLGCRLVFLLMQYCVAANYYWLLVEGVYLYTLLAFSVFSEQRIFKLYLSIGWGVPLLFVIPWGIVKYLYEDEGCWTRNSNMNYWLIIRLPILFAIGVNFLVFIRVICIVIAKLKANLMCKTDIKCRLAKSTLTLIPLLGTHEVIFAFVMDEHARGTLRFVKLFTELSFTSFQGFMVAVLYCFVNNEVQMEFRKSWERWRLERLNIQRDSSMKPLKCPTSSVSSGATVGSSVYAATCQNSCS
Format: cell-based.

Sequence of rat GlucR (P30082 27-485): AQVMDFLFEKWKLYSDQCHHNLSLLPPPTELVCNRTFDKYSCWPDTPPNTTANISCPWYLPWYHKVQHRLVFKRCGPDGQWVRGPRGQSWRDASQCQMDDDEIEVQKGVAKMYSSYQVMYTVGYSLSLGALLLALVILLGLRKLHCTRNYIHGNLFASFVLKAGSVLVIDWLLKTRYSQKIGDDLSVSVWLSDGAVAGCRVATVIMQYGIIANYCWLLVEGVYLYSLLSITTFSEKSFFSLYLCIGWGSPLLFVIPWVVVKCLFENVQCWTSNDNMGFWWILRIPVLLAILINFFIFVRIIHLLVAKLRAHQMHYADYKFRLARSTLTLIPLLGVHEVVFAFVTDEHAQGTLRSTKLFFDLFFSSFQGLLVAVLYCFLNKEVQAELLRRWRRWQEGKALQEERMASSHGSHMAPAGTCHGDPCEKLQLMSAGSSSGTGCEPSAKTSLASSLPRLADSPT

On to `CC[C@H](C)[C@H](NC(=O)[C@H](Cc1ccccc1)NC(=O)[C@H](CC(C)C)NC(=O)[C@H](CCCNC(=N)N)NC(=O)[C@@H](NC(=O)[C@H](C)NC(=O)[C@H](CCC(=O)O)NC(=O)[C@H](CCC(=O)O)NC(=O)[C@H](CCC(=O)O)NC(=O)[C@H](CCSC)NC(=O)[C@H](CCC(N)=O)NC(=O)[C@H](CCCCN=[N+]=[N-])NC(=O)[C@H](CO)NC(=O)[C@H](CC(C)C)NC(=O)[C@H](CC(=O)O)NC(=O)[C@H](CO)NC(=O)[C@@H](NC(=O)[C@H](Cc1ccccc1)NC(=O)[C@@H](NC(=O)CNC(=O)[C@H](CCC(N)=O)NC(=O)[C@@H](CO)NC(=O)[C@@H](N)Cc1c[nH]cn1)[C@@H](C)O)[C@@H](C)O)C(C)C)C(=O)N[C@@H](CCC(=O)O)C(=O)N[C@@H](Cc1c[nH]c2ccccc12)C(=O)N[C@@H](CC(C)C)C(=O)N[C@@H](CCCCN)C(=O)N[C@@H](CC(N)=O)C(=O)N[C@@H](CCCNC(=N)N)C(=O)N[C@@H](Cc1c[nH]cn1)C(=O)N[C@@H](Cc1ccc(O)cc1)C(=O)N[C@@H](CC(C)C)C(=O)N[C@@H](CC(N)=O)C(=O)N[C@@H](CC(C)C)C(=O)N[C@H](C(=O)N[C@H](C(=O)N[C@@H](CCCNC(=N)N)C(=O)N[C@@H](CCC(N)=O)C(=O)N[C@@H](CCCNC(=N)N)C(=O)N[C@@H](Cc1ccc(O)cc1)C(N)=O)[C@@H](C)O)C(C)C` [EP40], for which, on human GLP-1R [1], the “hill (competition binding at GLP-1R)” value is recorded as “–0.96”.
In the case of `CC[C@H](C)[C@H](NC(=O)[C@H](Cc1ccccc1)NC(=O)[C@H](CCC(=O)O)NC(=O)[C@H](CCCNC(=N)N)NC(=O)[C@@H](NC(=O)[C@H](C)NC(=O)[C@H](CCC(=O)O)NC(=O)[C@H](CCC(=O)O)NC(=O)[C@H](CCC(=O)O)NC(=O)[C@H](CC(C)C)NC(=O)[C@H](Cc1ccc(O)cc1)NC(=O)[C@H](CCCCN=[N+]=[N-])NC(=O)[C@H](CO)NC(=O)[C@H](CC(C)C)NC(=O)[C@H](CC(=O)O)NC(=O)[C@H](CO)NC(=O)[C@@H](NC(=O)[C@H](Cc1ccccc1)NC(=O)[C@@H](NC(=O)CNC(=O)[C@H](CCC(N)=O)NC(=O)[C@@H](CO)NC(=O)[C@@H](N)Cc1c[nH]cn1)[C@@H](C)O)[C@@H](C)O)C(C)C)C(=O)N[C@@H](C)C(=O)N[C@@H](Cc1c[nH]c2ccccc12)C(=O)N[C@@H](CC(C)C)C(=O)N[C@@H](CCCCN)C(=O)N[C@@H](CC(N)=O)C(=O)NCC(=O)NCC(=O)N1CCC[C@H]1C(=O)N[C@@H](CO)C(=O)N[C@@H](CCCNC(=N)N)C(=O)N[C@@H](Cc1c[nH]cn1)C(=O)N[C@@H](Cc1ccc(O)cc1)C(=O)N[C@@H](CC(C)C)C(=O)N[C@@H](CC(N)=O)C(=O)N[C@@H](CC(C)C)C(=O)N[C@H](C(=O)N[C@H](C(=O)N[C@@H](CCCNC(=N)N)C(=O)N[C@@H](CCC(N)=O)C(=O)N[C@@H](CCCNC(=N)N)C(=O)N[C@@H](Cc1ccc(O)cc1)C(N)=O)[C@@H](C)O)C(C)C` [GEP44], the IC50 (in general, the concentration at which inhibition is half-maximal) at human Y2-R was 10 nM; at human Y1-R it was 27 nM; at human GLP-1R [1] (nine concentrations 1 pM to 1 μM, range in brackets, read-out: IC50, competition binding at GLP-1R using red fluorescent GLP-1), 113 nM. Moreover, in data set [2], the “CLlnt, intrinsic clearance in rat liver microsomes” value is on record as 32.5 (1.18) μL/min/mg peptide. Further, the EC50 (in general, the concentration at which the effect is half-maximal) is above 3000 nM at rat GlucR; 0.33 nM at human GLP-1R [3] (HEK cells expressing human GLP-1R and cAMP biosensor H188, FRET, SES buffer pH 7.4, nonlinear regression, 95% CI in brackets, at least triplicate independent data sets, read-out: GLP-1R agonist action (EC50), increase of cytosolic cAMP).
Take “H[dS]QGTFTSDLSKQMEEEAVRLFIEWLKNGGPSRHYLNLVTRQRY-NH2 [EP44]”: binding on rat GLP-1R was put at a Kd of 0.12 nM. Further, the “increased GLP-1R potency over GEP44” value at human GLP-1R [3] (comparison of EC50 values) is given as around 30%. The “hill (competition binding at GLP-1R)” value on human GLP-1R [1] is “–1.56”.
